Test results taken from patent publication US8586629B2, “Composition for the treatment of oxidative stress” (Probiox SA, priority 2008, dated 2013).
Where two headings read alike, the source gives them in different places. One block for each molecule: values may come before it.

Assays:
[1] = 6 week supplementation; cited from earlier work
[2] = supplementation; cited from earlier work
[3] = system: LDL; settings: in vitro; cited from earlier work
[4] = system: oxidized LDL; assay: Clinical study: plasma oxidized LDL in women under Yasmin; assay type: in vivo; settings: for number of responders (minimum of 35% decrease of oxLDL): T4 versus T0; for effect on LDL oxidation: general conclusion; for oxLDL at T4 compared to T0: plasma, within arm
Excerpt: (§1) Subjects: 60 women were selected on the basis of the below-mentioned selection criteria and divided into 4 groups. Keeping a possible dropout in mind (in total 45 women completed the study), these groups were designed such, that by the end of the study; groups SOCO_A and SOCO_D would contain 15 subjects; and groups SOCO_B and SOCO_C would contain 10 subjects.
(§2) Inclusion Criteria: • Age: between 18 and 35 years • Informed consent collected • Patients under oral contraception with Yasmin for at least three months
(§3) Whereby one menstrual cycle is flanked by 2 vertical lines and, whereby: • SOCO_A) represents the intake of a combination of a Zinc supplement and a Quercetin supplement • SOCO_B) represents the intake of a Zinc supplement • SOCO_C) represents the intake of a Quercetin supplement • SOCO_D) represents the intake of a placebo supplement
(§4) And whereby: • V1 represents a first visit between day −42 and day −14 • V2 represents a second visit between day −7 and −3 • V3 represents a third visit between day 23 and 27 • V4 represents a fourth visit between day 51 and 55 • V5 represents a fifth visit between day 113 and 117
(§5) SOCO_A: Quercetin DC 500 mg • Zinc picolinate 20% (elementary 22.5 mg) 113 mg • Magnesium stearate 3 mg • 1 capsule per day during 112 days
(§6) SOCO_B: Zinc picolinate 20% (elementary 22.5 mg) 113 mg • Dicalcium phosphate 125 mg • Cellulose microcrystals 375 mg • Magnesium stearate 3 mg • 1 capsule per day during 112 days
(§7) SOCO_C: Quercetin DC 500 mg • Dicalcium phosphate 85 mg • Cellulose microcrystals 28 mg • Magnesium stearate 3 mg • 1 capsule per day during 112 days
(§8) SOCO_D: Dicalcium phosphate 460 mg • Cellulose microcrystals 153 mg • Magnesium stearate 3 mg • 1 capsule per day during 112 days
(§9) A blood sample (2-3 tubes of +/−5 ml) was collected during each visit. A maximum of 60 ml blood was required per subject for the whole study. Blood samples for haematological and biochemical tests were collected during V1 and V5, and blood samples for oxidative stress assessment were collected during V2, V3, V4 and V5.
(§10) Plasma concentration of lipid peroxides, copper and zinc were determined in blood samples taken at V2, V3, V4 and V5. Plasma concentration of oxidized LDL was determined in blood samples taken at V2 and V5. The expression of 200 genes involved in oxidative stress were determined via quantitative measurements of mRNA expression by microarray, in blood samples taken at V2 and V5.

[5] = Clinical study: plasma lipid peroxides, copper and zinc in women under Yasmin; assay type: in vivo
Excerpt: as §1, §2, §3, §4, §5, §6, §7, §8, §9, §10

[6] = hypobaric hypoxia studies and COPD study; cited from earlier work
[7] = system: LDL; settings: zinc supplementation; cited from earlier work
[8] = zinc supplementation; cited from earlier work
[9] = zinc supplemented group; cited from earlier work

Molecule: C[C@@H]1O[C@@H](OC[C@H]2O[C@@H](Oc3c(-c4ccc(O)c(O)c4)oc4cc(O)cc(O)c4c3=O)[C@H](O)[C@@H](O)[C@@H]2O)[C@H](O)[C@H](O)[C@H]1O [rutin]
levels of three plasma flavonoids [1]: significantly elevated

Molecule: O=c1c(O)c(-c2ccc(O)c(O)c2)oc2cc(O)cc(O)c12 [quercetin]
protection from oxidative stress induced damage [2]: does not exert protection | inhibition of oxidative damage to LDL [3]: most effective inhibitor

Molecule: O=c1c(O)c(-c2ccc(O)c(O)c2)oc2cc(O)cc(O)c12 [quercetin alone, Quercetin]
number of responders (minimum of 35% decrease of oxLDL) [4]: 0% | effect on LDL oxidation [4]: weak effect | oxLDL at T4 compared to T0 [4]: weak significant decrease

mean relative change in Zn between T4 and T0 (mean zinc increase) ([5]; compared to placebo): significant | mean relative change in Zn between T4 and T0 (mean zinc increase) ([5]; compared to quercetin alone): significant
Molecule: Zinc picolinate [Zinc alone]
number of responders (minimum of 35% decrease of oxLDL) [4]: 0% | effect on LDL oxidation [4]: No effect | oxLDL at T4 compared to T0 [4]: no significant changes | mean relative change in Cu/Zn between T4 and T0 (mean Cu/Zn decrease) ([5]; compared to placebo): significant | mean relative change in Cu/Zn between T4 and T0 (mean Cu/Zn decrease) ([5]; compared to quercetin alone): significant

Molecule: [Zn] [zinc]
oxidative stress markers [6]: no effects | Cu-induced LDL oxidation [7]: no effects | oxidative stress markers [8]: did not alter | incidence of infection [9]: significantly lower | lipid peroxides [9]: significant diminution
